Laboratory results taken from US10369145B2, “Coumarin derivatives and methods of use in treating hyperproliferative diseases” (DISCOVERYBIOMED, INC., priority 2013, dated 2019).
Like-named read-outs stand apart in the source and are kept apart here.

Experiments:
K-562 = assay: NCI 60 panel: K-562 (Leukemia); format: cell-based
RPMI-8226 = assay: NCI 60 panel: RPMI-8226 (Leukemia); format: cell-based
NCI-H226 = assay: NCI 60 panel: NCI-H226 (Non-Small Cell Lung Cancer); format: cell-based
HCT-15 = assay: NCI 60 panel: HCT-15 (Colon Cancer); format: cell-based
KM12 = assay: NCI 60 panel: KM12 (Colon Cancer); format: cell-based
SF-539 = assay: NCI 60 panel: SF-539 (CNS Cancer); format: cell-based
SNB-19 = assay: NCI 60 panel: SNB-19 (CNS Cancer); format: cell-based
LOX IMVI = assay: NCI 60 panel: LOX IMVI (Melanoma); format: cell-based
MALME-3M = assay: NCI 60 panel: MALME-3M (Melanoma); format: cell-based
SK-MEL-2 = assay: NCI 60 panel: SK-MEL-2 (Melanoma); format: cell-based
SK-MEL-28 = assay: NCI 60 panel: SK-MEL-28 (Melanoma); format: cell-based
SK-MEL-5 = assay: NCI 60 panel: SK-MEL-5 (Melanoma); format: cell-based
IGROV1 = assay: NCI 60 panel: IGROV1 (Ovarian Cancer); format: cell-based
NCI/ADR-RES = system: NCI/ADR-RES
Excerpt: (§1) TGI means the drug concentration resulting in total growth inhibition or “cytostasis.” LC50 is the concentration of drug resulting in a 50% reduction in the measured cytosolic ATP at the end of the drug treatment as compared to that at the beginning, indicating a net loss of cells following treatment (cytotoxicity).
(§2) A major limitation with the anti-mitotic drugs in particular and in conventional chemotherapeutics in general, is their susceptibility to cellular mechanisms of adaptive/intrinsic multi-drug resistance (i.e., MDR efflux pumps such as p-glycoprotein, MRP1).

OVCAR-3 = system: OVCAR-3
Excerpt: as §1, §2

SK-OV-3 = system: SK-OV-3
Excerpt: as §1, §2

786-0 = assay: NCI 60 panel: 786-0 (Renal Cancer); format: cell-based
RXF 393 = assay: NCI 60 panel: RXF 393 (Renal Cancer); format: cell-based
TK-10 = assay: NCI 60 panel: TK-10 (Renal Cancer); format: cell-based
MDA-MB-231 = assay: NCI 60 panel: MDA-MB-231 (Breast Cancer); format: cell-based
RPMI-8826 = assay: Complementary DBM in vitro profiling: RPMI-8826 (Hematologic Cancer); format: cell-based
Experimental: The compounds described herein are effective for inhibiting cellular proliferation in hyperproliferative cell types. To study the effects of these compounds, an assay was developed to differentiate the effects of the compounds on proliferating versus confluent cells. The assay design generates a proliferating density 24 hours after seeding and provides a 3-day active cell growth/doubling window in which to gauge the anti-proliferative effect of the compounds described herein. […] In this 3-day growth window, cell number increases with daily doublings across the 72-hour period (see FIG. 1).
In each assay design, compounds were added at the 24-hour timepoint after cell seeding. The effect of the compounds, relative to vehicle control and to VelCade (a proteasome inhibitor approved in the U.S. for treating relapsed multiple myeloma and mantle cell lymphoma) as a positive control, was assessed across the 3-day growth window for proliferating cells and on an already near confluent culture of cells for the same time period. Normal cells were handled in the same manner, with some adjustment of seeding density needed in select cases. […]
Cell number at the end of the assay was determined using the CELLTITER-GLO Luminescent Cell Viability Assay (Promega; Madison, Wis.). The CELLTITER-GLO Luminescent Cell Viability Assay is a homogeneous method of determining the number of viable cells in culture based on quantitation of the ATP present, an indicator of metabolically active cells. IC50 values were calculated. […]
For a typical screening experiment to identify the compounds, cells were seeded into 96- or 384-well microtiter plates at plating densities pre-determined for each cell line to ensure drug exposure occurs during the proliferative phase well before confluency is reached. […] Values were calculated for each of these three parameters if the level of activity was reached; however, if the effect was not reached or was exceeded, the value for that parameter was expressed as greater or less than the maximum or minimum concentration tested.

NCI-60 cell panel = assay: NCI-60 cell panel, whole panel; format: cell-based, human; conditions: average in the NCI-60 cell panel
[1] = read-out: LC50 (the source's name)

Question: For COc1ccccc1Nc1nc(-c2cc3cccc(N)c3oc2=O)cs1 [Compound DBM 228], which GI50 (K-562) is on record?
Answer: 0.043 µM

Question: And the TGI (K-562)?
Answer: 16.1 µM

Question: What about the CC50 (K-562; [1]) of the same molecule?
Answer: > 100 µM

Question: What about the GI50 (RPMI-8226) of the same molecule?
Answer: 0.238 µM

Question: And the TGI (RPMI-8226)?
Answer: 43.9 µM

Question: And the CC50 (RPMI-8226; [1])?
Answer: > 100 µM

Question: And the GI50 (NCI-H226)?
Answer: 11.2 µM

Question: What about the TGI (NCI-H226) of the same molecule?
Answer: 37.2 µM

Question: What about the CC50 (NCI-H226; [1]) of the same molecule?
Answer: > 100 µM

Question: And the GI50 (HCT-15)?
Answer: 0.128 µM

Question: What about the TGI (HCT-15) of the same molecule?
Answer: 17.3 µM

Question: What about the CC50 (HCT-15; [1]) of the same molecule?
Answer: > 100 µM

Question: What about the GI50 (KM12) of the same molecule?
Answer: 0.0705 µM

Question: What about the TGI (KM12) of the same molecule?
Answer: 13.4 µM

Question: What about the CC50 (KM12; [1]) of the same molecule?
Answer: > 100 µM

Question: What about the GI50 (SF-539) of the same molecule?
Answer: 0.109 µM

Question: And the TGI (SF-539)?
Answer: 0.85 µM

Question: And the CC50 (SF-539; [1])?
Answer: 29.8 µM

Question: What about the GI50 (SNB-19) of the same molecule?
Answer: 0.182 µM

Question: And the TGI (SNB-19)?
Answer: 35 µM

Question: What about the CC50 (SNB-19; [1]) of the same molecule?
Answer: > 100 µM

Question: What about the GI50 (LOX IMVI) of the same molecule?
Answer: 0.9 µM

Question: What about the TGI (LOX IMVI) of the same molecule?
Answer: 50.8 µM

Question: What about the CC50 (LOX IMVI; [1]) of the same molecule?
Answer: > 100 µM

Question: What about the GI50 (MALME-3M) of the same molecule?
Answer: 16.8 µM

Question: What about the TGI (MALME-3M) of the same molecule?
Answer: 49.6 µM

Question: And the CC50 (MALME-3M; [1])?
Answer: > 100 µM

Question: And the GI50 (SK-MEL-2)?
Answer: 0.086 µM

Question: What about the TGI (SK-MEL-2) of the same molecule?
Answer: 28.4 µM

Question: What about the CC50 (SK-MEL-2; [1]) of the same molecule?
Answer: 99.5 µM

Question: And the GI50 (SK-MEL-28)?
Answer: 0.0889 µM

Question: And the TGI (SK-MEL-28)?
Answer: 31 µM

Question: And the CC50 (SK-MEL-28; [1])?
Answer: 99.3 µM

Question: What about the GI50 (SK-MEL-5) of the same molecule?
Answer: 0.0768 µM

Question: And the TGI (SK-MEL-5)?
Answer: 2.3 µM

Question: What about the CC50 (SK-MEL-5; [1]) of the same molecule?
Answer: 26.8 µM

Question: And the GI50 (IGROV1)?
Answer: 1.23 µM

Question: And the TGI (IGROV1)?
Answer: 23.4 µM

Question: What about the CC50 (IGROV1; [1]) of the same molecule?
Answer: > 100 µM

Question: What about the CC50 (NCI/ADR-RES) of the same molecule?
Answer: > 100 µM

Question: And the “potency in multi-drug resistant line, in words (FIG. 9)” value (NCI/ADR-RES; NCI-ADR/RES versus drug-responsive cells)?
Answer: remained potent

Question: What about the GI50 (NCI/ADR-RES; NCI/ADR-RES) of the same molecule?
Answer: 0.0459 µM

Question: What about the TGI (NCI/ADR-RES; NCI/ADR-RES) of the same molecule?
Answer: 0.327 µM

Question: And the IC50 (NCI/ADR-RES; read-out: potency in the NCI-ADR/RES cell line, multi-drug resistant NCI-ADR/RES)?
Answer: 0.0445 µM

Question: What about the CC50 (OVCAR-3) of the same molecule?
Answer: 24.2 µM

Question: What about the GI50 (OVCAR-3; OVCAR-3) of the same molecule?
Answer: 0.0456 µM

Question: And the TGI (OVCAR-3; OVCAR-3)?
Answer: 0.322 µM

Question: What about the GI50 (OVCAR-3; OVCAR-3, as stated in text) of the same molecule?
Answer: 0.05 µM

Question: And the CC50 (SK-OV-3)?
Answer: > 100 µM

Question: And the GI50 (SK-OV-3; SK-OV-3)?
Answer: 0.41 µM

Question: And the TGI (SK-OV-3; SK-OV-3)?
Answer: 22 µM

Question: And the GI50 (SK-OV-3; SK-OV-3, as stated in text)?
Answer: 0.33 µM

Question: What about the GI50 (786-0) of the same molecule?
Answer: 0.709 µM

Question: And the TGI (786-0)?
Answer: 15.9 µM

Question: And the CC50 (786-0; [1])?
Answer: 89.4 µM

Question: And the GI50 (RXF 393)?
Answer: 0.218 µM

Question: And the TGI (RXF 393)?
Answer: 15.2 µM

Question: And the CC50 (RXF 393; [1])?
Answer: 52.6 µM

Question: What about the GI50 (TK-10) of the same molecule?
Answer: 10 µM

Question: And the TGI (TK-10)?
Answer: 23.5 µM

Question: And the CC50 (TK-10; [1])?
Answer: 55 µM

Question: And the GI50 (MDA-MB-231)?
Answer: 1.37 µM

Question: And the TGI (MDA-MB-231)?
Answer: 12 µM

Question: What about the CC50 (MDA-MB-231; [1]) of the same molecule?
Answer: > 100 µM

Question: And the GI50 (RPMI-8826)?
Answer: 0.271 µM

Question: What about the TGI (RPMI-8826) of the same molecule?
Answer: 0.312 µM

Question: And the CC50 (RPMI-8826; [1])?
Answer: > 30 µM

Question: What about the GI50 (NCI-60 cell panel) of the same molecule?
Answer: 0.25 µM
